From patent publication US11566007B2, “Ras inhibitors” (Revolution Medicines, Inc., priority 2019, dated 2023)

Columns and labels:
KRAS G12D = KRAS G12D (Homo sapiens (Human), UniProt P01116+P62937, G12D); experiment: Ras-Raf (BRAF RBD) disruption / FRET / MOA assay, KRAS G12D; assay type: biochemical; settings: Ras-Raf disruption/FRET/MOA assay; class symbols; read-out: KRAS G12D FRET data IC50
Summary of the method: (§1)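 Compounds, top final concentration 30 μM in 10-point 3-fold series, incubated 3 hours at 25° C with nucleotide-loaded Ras, cyclophilin A and BRAF RBD.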

KRAS G13D = KRAS G13D (Homo sapiens (Human), UniProt P01116+P62937, G13D); experiment: Ras-Raf (BRAF RBD) disruption / FRET / MOA assay, KRAS G13D; assay type: biochemical; settings: read-out: IC50* KRAS G13D FRET data
Summary of the method: as §1

KRAS WT = KRAS WT (Homo sapiens (Human), UniProt P01116+P62937); experiment: Ras-Raf (BRAF RBD) disruption / FRET / MOA assay, KRAS WT; assay type: biochemical; settings: read-out: IC50* KRAS WT FRET data
Summary of the method: as §1

K-Ras G13C = K-Ras G13C (Homo sapiens (Human), UniProt P01116+P62937, G13C); experiment: Ras-Raf (BRAF RBD) disruption / FRET / MOA assay, KRAS G13C; assay type: biochemical; settings: KRAS G13C; Ras-Raf disruption/FRET/MOA assay; read-out: IC50* KRAS G13C FRET data
Summary of the method: as §1

NCI-H358 (K-Ras G12C) = experiment: CellTiter-Glo cell viability assay, NCI-H358; assay type: cell-based, human; settings: Homo sapiens, NCI-H358, 120 h, NCI-H358, 5-day treatment; class symbols; read-out: Additional H358 Cell Viability assay data (K-Ras G12C, IC50)
Summary of the method: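 Compounds dispensed directly onto seeded K-Ras mutant cells; plates read on day 5 after ~30 min equilibration to room temperature, by CellTiter-Glo luminescence. Signal normalized as (sample/mean DMSO)×100, then fitted to a four-parameter logistic curve.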

NRAS G12C = NRAS G12C (Homo sapiens (Human), UniProt P01111+P62937, G12C); experiment: Ras-Raf (BRAF RBD) disruption / FRET / MOA assay, NRAS G12C; assay type: biochemical; settings: read-out: IC50* NRAS G12C FRET data
Summary of the method: as §1

[1] = tested on: NCI-H358 cells (K-Ras G12C); experiment: Potency assay: pERK in NCI-H358 cells; assay type: cell-based, human; settings: Homo sapiens, NCI-H358; H358 KRAS G12C; read-out: pERK EC50
Summary of the method: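 pERK decrease read by AlphaLISA SureFire p-ERK1/2 or In-Cell Western after 4 h compound exposure at 37 °C, 5% CO2.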

K-Ras G12C = K-Ras G12C (Homo sapiens (Human), UniProt P01116+P62937, G12C); experiment: Ras-Raf (BRAF RBD) disruption / FRET / MOA assay, KRAS G12C; assay type: biochemical; settings: KRAS G12C; Ras-Raf disruption/FRET/MOA assay; read-out: IC50* KRAS G12C FRET data
Summary of the method: as §1

KRAS G12S = KRAS G12S (Homo sapiens (Human), UniProt P01116+P62937, G12S); experiment: Ras-Raf (BRAF RBD) disruption / FRET / MOA assay, KRAS G12S; assay type: biochemical; settings: Ras-Raf disruption/FRET/MOA assay; class symbols; read-out: KRAS G12S FRET data IC50
Summary of the method: as §1

KRAS G12V = KRAS G12V (Homo sapiens (Human), UniProt P01116+P62937, G12V); experiment: Ras-Raf (BRAF RBD) disruption / FRET / MOA assay, KRAS G12V; assay type: biochemical; settings: read-out: IC50* KRAS G12V FRET data
Summary of the method: as §1

K-Ras G13C, sequence (P01116-2 other isoform, or with tags, fused parts or gaps G13C): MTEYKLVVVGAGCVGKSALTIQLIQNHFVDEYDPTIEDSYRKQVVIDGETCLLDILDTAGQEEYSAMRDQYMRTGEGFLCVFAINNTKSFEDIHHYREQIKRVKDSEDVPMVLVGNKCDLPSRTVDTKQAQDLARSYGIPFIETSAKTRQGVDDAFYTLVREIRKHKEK
K-Ras G13C, sequence (P62937 whole entry): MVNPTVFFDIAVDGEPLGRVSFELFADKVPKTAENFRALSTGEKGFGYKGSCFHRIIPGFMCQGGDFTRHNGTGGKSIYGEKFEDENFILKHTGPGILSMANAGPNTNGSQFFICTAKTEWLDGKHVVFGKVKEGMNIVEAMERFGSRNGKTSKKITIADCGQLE
KRAS G13D, sequence (P01116-2 other isoform, or with tags, fused parts or gaps G13D): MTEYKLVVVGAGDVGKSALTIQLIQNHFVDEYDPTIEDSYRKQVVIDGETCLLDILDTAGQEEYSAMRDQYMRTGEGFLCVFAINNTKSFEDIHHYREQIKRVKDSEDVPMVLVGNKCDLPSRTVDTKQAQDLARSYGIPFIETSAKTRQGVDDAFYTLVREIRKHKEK
KRAS G13D, sequence (P62937 whole entry): as the sequence (P62937 whole entry) above
KRAS WT, sequence (P01116-2 other isoform, or with tags, fused parts or gaps): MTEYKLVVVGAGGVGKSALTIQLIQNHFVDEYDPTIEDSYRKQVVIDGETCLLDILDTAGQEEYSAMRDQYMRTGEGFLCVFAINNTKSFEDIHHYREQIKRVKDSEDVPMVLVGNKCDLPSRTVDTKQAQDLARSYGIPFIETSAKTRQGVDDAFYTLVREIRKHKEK
KRAS WT, sequence (P62937 whole entry): as the sequence (P62937 whole entry) above
K-Ras G12C, sequence (P01116-2 other isoform, or with tags, fused parts or gaps G12C): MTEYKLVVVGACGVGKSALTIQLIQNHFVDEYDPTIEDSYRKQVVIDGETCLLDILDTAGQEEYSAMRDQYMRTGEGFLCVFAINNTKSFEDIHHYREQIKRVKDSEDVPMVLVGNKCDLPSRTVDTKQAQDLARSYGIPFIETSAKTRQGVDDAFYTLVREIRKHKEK
K-Ras G12C, sequence (P62937 whole entry): as the sequence (P62937 whole entry) above
NRAS G12C, sequence (P01111 whole entry G12C): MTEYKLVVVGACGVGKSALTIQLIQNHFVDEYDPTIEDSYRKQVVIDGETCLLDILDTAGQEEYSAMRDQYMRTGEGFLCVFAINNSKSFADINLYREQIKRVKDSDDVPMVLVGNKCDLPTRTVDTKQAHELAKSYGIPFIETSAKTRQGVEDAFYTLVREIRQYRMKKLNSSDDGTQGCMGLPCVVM
NRAS G12C, sequence (P62937 whole entry): as the sequence (P62937 whole entry) above
KRAS G12S, sequence (P01116-2 other isoform, or with tags, fused parts or gaps G12S): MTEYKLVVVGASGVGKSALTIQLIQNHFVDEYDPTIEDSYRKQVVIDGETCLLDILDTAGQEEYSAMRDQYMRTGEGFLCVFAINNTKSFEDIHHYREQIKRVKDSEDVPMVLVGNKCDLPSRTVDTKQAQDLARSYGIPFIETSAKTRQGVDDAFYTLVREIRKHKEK
KRAS G12S, sequence (P62937 whole entry): as the sequence (P62937 whole entry) above
KRAS G12V, sequence (P01116-2 other isoform, or with tags, fused parts or gaps G12V): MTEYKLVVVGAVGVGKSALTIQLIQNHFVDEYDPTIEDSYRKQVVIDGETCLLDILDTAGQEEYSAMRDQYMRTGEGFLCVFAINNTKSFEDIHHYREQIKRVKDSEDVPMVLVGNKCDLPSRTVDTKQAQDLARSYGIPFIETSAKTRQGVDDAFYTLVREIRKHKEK
KRAS G12V, sequence (P62937 whole entry): as the sequence (P62937 whole entry) above
KRAS G12D, sequence (P01116-2 other isoform, or with tags, fused parts or gaps G12D): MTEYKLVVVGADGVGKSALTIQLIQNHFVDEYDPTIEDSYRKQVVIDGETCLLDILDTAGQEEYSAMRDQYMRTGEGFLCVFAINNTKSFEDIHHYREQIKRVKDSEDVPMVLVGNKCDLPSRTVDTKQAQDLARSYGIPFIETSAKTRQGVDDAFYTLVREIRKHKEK
KRAS G12D, sequence (P62937 whole entry): as the sequence (P62937 whole entry) above

CCn1c(-c2cccnc2[C@H](C)OC)c2c3cc(ccc31)-c1cccc(c1)C[C@H](NC(=O)[C@H](C(C)C)N(C)C(=O)[C@H]1CCN(C(=O)C#CC3CCO3)C1)C(=O)N1CCC[C@H](N1)C(=O)OCC(C)(C)C2 (mixture of isomers) [Example A509]
IC50 (KRAS G12D): > 10000 nM | IC50 (KRAS G13D): 1000 to 10000 nM | IC50 (KRAS WT): 1000 to 10000 nM | IC50 (K-Ras G13C): 100 to 1000 nM | IC50 (NCI-H358 (K-Ras G12C)): < 10 nM | IC50 (NRAS G12C): < 10 nM | EC50 [1]: < 5000 nM | IC50 (K-Ras G12C): < 10 nM | IC50 (KRAS G12S): 1000 to 10000 nM | IC50 (KRAS G12V): 1000 to 10000 nM

CCn1c(-c2cccnc2[C@H](C)OC)c2c3cc(ccc31)-c1csc(n1)C[C@H](NC(=O)[C@H](C(C)C)N1CC[C@@]3(CCN(C(=O)C#CC(C)(C)N(C)C)C3)C1=O)C(=O)N1CCC[C@H](N1)C(=O)OCC(C)(C)C2 (single isomer, unassigned) [Example A425]
IC50 (KRAS G12D): > 10000 nM | IC50 (KRAS G13D): > 10000 nM | IC50 (KRAS WT): > 10000 nM | IC50 (K-Ras G13C): 100 to 1000 nM | IC50 (NCI-H358 (K-Ras G12C)): < 10 nM | IC50 (NRAS G12C): 10 to 100 nM | EC50 [1]: < 5000 nM | IC50 (K-Ras G12C): < 10 nM | IC50 (KRAS G12S): 1000 to 10000 nM | IC50 (KRAS G12V): > 10000 nM

C=CC(=O)N1CC[C@H](C(=O)N(C)[C@H](C(=O)N[C@H]2Cc3cc(O)cc(c3)-c3ccc4c(c3)c(c(-c3ccc(CN(C)C)nc3COC)n4CC)CC(C)(C)COC(=O)[C@@H]3CCCN(N3)C2=O)C(C)C)C1 [Example A103]
IC50 (KRAS G12D): 1000 to 10000 nM | IC50 (KRAS G13D): 1000 to 10000 nM | IC50 (KRAS WT): 1000 to 10000 nM | IC50 (K-Ras G13C): 1000 to 10000 nM | IC50 (NCI-H358 (K-Ras G12C)): 100 to 1000 nM | IC50 (NRAS G12C): 10 to 100 nM | EC50 [1]: < 5000 nM | IC50 (K-Ras G12C): 10 to 100 nM | IC50 (KRAS G12S): 100 to 1000 nM | IC50 (KRAS G12V): 100 to 1000 nM

C=CC(=O)N1CC[C@H](C(=O)N(C)[C@@H](C(=O)N[C@H]2Cc3cc(O)cc(c3)-c3ccc4c(c3)c(c(-c3cccc(CN(C)C)c3)n4CC)CC(C)(C)COC(=O)[C@@H]3CCCN(N3)C2=O)C(C)C)C1 [Example A106]
IC50 (KRAS G12D): > 10000 nM | IC50 (KRAS G13D): > 10000 nM | IC50 (KRAS WT): > 10000 nM | IC50 (K-Ras G13C): > 10000 nM | IC50 (NCI-H358 (K-Ras G12C)): 100 to 1000 nM | IC50 (NRAS G12C): 1000 to 10000 nM | EC50 [1]: < 5000 nM | IC50 (K-Ras G12C): 1000 to 10000 nM | IC50 (KRAS G12S): > 10000 nM | IC50 (KRAS G12V): > 10000 nM

CCn1c(-c2cncnc2)c2c3cc(ncc31)-c1cc(O)cc(c1)C[C@H](NC(=O)[C@H](C(C)C)N(C)C(=O)[C@H]1CCN(C(=O)C#CCN(C)C)C1)C(=O)N1CCC[C@H](N1)C(=O)OCC(C)(C)C2 [Example A108]
IC50 (KRAS G12D): 1000 to 10000 nM | IC50 (KRAS G13D): 1000 to 10000 nM | IC50 (KRAS WT): 1000 to 10000 nM | IC50 (K-Ras G13C): 10 to 100 nM | IC50 (NCI-H358 (K-Ras G12C)): < 10 nM | IC50 (NRAS G12C): < 10 nM | EC50 [1]: < 5000 nM | IC50 (K-Ras G12C): < 10 nM | IC50 (KRAS G12S): 1000 to 10000 nM | IC50 (KRAS G12V): 1000 to 10000 nM

C=CC(=O)N1CC[C@H](C(=O)N(C)[C@H](C(=O)N[C@H]2Cc3cc(O)cc(c3)-c3ccc4c(c3)c(c(-c3cc(CN(C)C)nn3C)n4CC)CC(C)(C)COC(=O)[C@@H]3CCCN(N3)C2=O)C(C)C)C1 [Example A109]
IC50 (KRAS G12D): > 10000 nM | IC50 (KRAS G13D): > 10000 nM | IC50 (KRAS WT): > 10000 nM | IC50 (K-Ras G13C): > 10000 nM | IC50 (NCI-H358 (K-Ras G12C)): 100 to 1000 nM | IC50 (NRAS G12C): 100 to 1000 nM | EC50 [1]: < 5000 nM | IC50 (K-Ras G12C): 100 to 1000 nM | IC50 (KRAS G12S): 1000 to 10000 nM | IC50 (KRAS G12V): 1000 to 10000 nM

C=CC(=O)N(C)[C@H](C(=O)N[C@H]1Cc2cc(O)cc(c2)-c2ccc3c(c2)c(c(-c2cccnc2COC)n3CC)CC(C)(C)COC(=O)[C@@H]2CCCN(N2)C1=O)C(C)C [Example A110]
IC50 (KRAS G12D): 1000 to 10000 nM | IC50 (KRAS G13D): 1000 to 10000 nM | IC50 (KRAS WT): 100 to 1000 nM | IC50 (K-Ras G13C): 100 to 1000 nM | IC50 (NCI-H358 (K-Ras G12C)): 100 to 1000 nM | IC50 (NRAS G12C): 1000 to 10000 nM | EC50 [1]: < 5000 nM | IC50 (K-Ras G12C): 100 to 1000 nM | IC50 (KRAS G12S): 1000 to 10000 nM | IC50 (KRAS G12V): 1000 to 10000 nM

C=CC(=O)N1CC[C@H](C(=O)N(C)[C@H](C(=O)N[C@H]2Cc3cc(O)cc(c3)-c3ccc4c(c3)c(c(-c3ccc(CN(C)C)c(COC)c3)n4CC)CC(C)(C)COC(=O)[C@@H]3CCCN(N3)C2=O)C(C)C)C1 [Example A111]
IC50 (KRAS G12D): > 10000 nM | IC50 (KRAS G13D): 1000 to 10000 nM | IC50 (KRAS WT): 1000 to 10000 nM | IC50 (K-Ras G13C): 1000 to 10000 nM | IC50 (NCI-H358 (K-Ras G12C)): 10 to 100 nM | IC50 (NRAS G12C): 100 to 1000 nM | EC50 [1]: < 5000 nM | IC50 (K-Ras G12C): 100 to 1000 nM | IC50 (KRAS G12S): 1000 to 10000 nM | IC50 (KRAS G12V): 1000 to 10000 nM
